Reference: patent EP4108244A1, “SS-LACTAM ANTIBIOTIC WITH SIGNIFICANT ACTIVITY AGAINST CANCER E.G. COLON MALIGNANCIES” (priority 2021, dated 2022)
Where “and” joins values, the source holds several entries; their conditions need not be identical. Equal entries are not always repeated. Marks after values point to notes of the source that are not given here.

Columns and labels:
DLD-1 cells [1] = assay: MTT metabolic activity assay; format: cell-based, human
Description: MTT assay was used to assess the proliferation rate of HCT-116 and DLD-1 cells. In this assay the ability of metabolically active cells to convert tetrazolium salt into a blue formazan product is measured. The absorption of the dissolved formazan was quantified at 540 nm by an ELISA reader (Bio-Rad iMark Microplate Reader).
Cells were plated at 2^∗104cells/ml in 96-well plates and incubated overnight. […] Metabolic activity of the cells was studied using the MTT assay that measures the ability of metabolically active cells to convert tetrazolium salt into a blue formazan product, the absorbance of which is recorded at 540 nm by an ELISA reader (Bio-Rad iMark Microplate Reader).

RAW 264.7 cells = assay: MTT metabolic activity assay on macrophages; format: cell-based, murine
Description: (§1) Cells were plated at 2^∗104cells/ml in 96-well plates and incubated overnight. The following day, cells were treated in triplicate with Ceftazdime or 5-fluorouracil for 24-48 h, depending on the cell line used. Metabolic activity of the cells was studied using the MTT assay that measures the ability of metabolically active cells to convert tetrazolium salt into a blue formazan product, the absorbance of which is recorded at 540 nm by an ELISA reader (Bio-Rad iMark Microplate Reader).

DLD-1 cells [2] = assay: Cell cycle distribution, propidium iodide staining; format: cell-based, human; settings: for accumulation of dead cells in the pre-G1 phase vs. control: CFT alone
Description: Propidium iodide (PI) staining was used to evaluate the effect of the different treatments on the cell cycle. […] 48 h and 72 h post-treatment, collected cells were fixed with ice-cold ethanol (70%) and stored at - 20 °C for at least 2 h. Fixed cells, which were washed with PBS and incubated at 37 °C for 1 h with 50 µl RNase (1 mg/ml) (Sigma Aldrich, Germany), were stained for 15 minutes with PI (Molecular Probes, Eugene, Oregon, USA). Cell cycle was monitored using BD FACSDiva™ and the percentage of cells in the different phases of the cell cycle (pre-Gi, G0/G1, S, and G2/M) phases was determined using BD FACSDiva™ Software.
Propidium iodide (PI) staining was used to evaluate the effect of the different treatments (Ceftazidime (100 µg/ml) or 5-Fluorouracil (16 µM)) on the cell cycle profile of DLD-1 cells. Briefly, DLD-1 cells were plated at 5^∗104/ml and treated for 48 h and 72 h. Collected cells were fixed with ice-cold ethanol (70%) and stored at -20°C for at least 2 h. Fixed cells, which were washed with PBS and incubated at 37°C for 1 h with 50 µl RNase (1 mg/ml) (Sigma Aldrich, Germany), were stained for 15 minutes with PI (Molecular Probes, Eugene, Oregon, USA). Cell cycle was monitored using BD FACSDiva™ and the percentage of cells in the different phases of the cell cycle (pre-Gi, G0/G1, S, and G2/M) phases was determined using BD FACSDiva™ Software.

HCT-116 cells [3] = assay: Cell cycle distribution, propidium iodide staining; format: cell-based, human; settings: CFT 100 µg/mL, CFP 50 µg/mL, 5-FU 8 µM, alone or combined, mean ± SE
Description: Propidium iodide (PI) staining was used to evaluate the effect of the different treatments on the cell cycle. […] Fixed cells, which were washed with PBS and incubated at 37 °C for 1 h with 50 µl RNase (1 mg/ml) (Sigma Aldrich, Germany), were stained for 15 minutes with PI (Molecular Probes, Eugene, Oregon, USA).

HCT-116 cells [4] = assay: MTT metabolic activity assay; format: cell-based, human; settings: 48 h post-treatment, CFT 100 µg/mL, CFP 50 µg/mL combined with 5-FU
HCT-116 cells [5] = assay: Xenograft model of colon cancer cells, tumor growth; format: in vivo, NOD/SCID mice
Description: Twelve NOD/SCID mice were randomly distributed into two groups (6 mice/group). HCT-116 colon cancer cells (3.5 million) suspended in sterile physiological solution (0.9% NaCl) were injected subcutaneously into the flank of 4 to 6-week old mice. Animals were kept in a light- and temperature-controlled environment and provided with food and water ad libitum. The tumor size was monitored and determined three times per week using a sterile Vernier caliper. Tumor volume was calculated by the following formula: Volume=π/6^∗(length × width × height). […] Growth delay was assessed by comparing the size of tumors in treated animals to those of control animals. Ethical approval was obtained before the beginning of the experiments.

Caco-2 cells = assay: MTT metabolic activity assay; format: cell-based, human; settings: 24 h post-treatment, 5-Fluorouracil 4µM
Description: as §1

HCT-116 cells [6] = assay: Antibiotics' uptake by the cells, LC-MS/MS; settings: for Concentration of CFT, Lysate / Concentration of CFT, Supernatant: CFT 100 µg/ml alone or + 5-FU 8 µM
Description: (§2) This step was repeated three times and cell homogenate were vortexed at high-speed prior extraction. 40 µl from each supernatant and cell suspension were combined with 200 µl of internal standard working solution prepared in ice-cold methanol. Samples were then centrifuged and 100 µl of the supernatant were diluted with 400 µl water in glass vials prior analysis with LC-/MS/MS.

DLD-1 cells [7] = assay: Antibiotics' uptake by the cells, LC-MS/MS; settings: for Concentration of CFT, Lysate / Concentration of CFT, Supernatant: CFT 100 µg/ml alone or + 5-FU 16 µM
Description: as §2

[8] = 48 h, CFT 100 µg/mL, CFP 50 µg/mL, 5-FU 16 µM, alone or combined, mean ± SE
[9] = 72 h, CFT 100 µg/mL, CFP 50 µg/mL, 5-FU 16 µM, alone or combined, mean ± SE
[10] = three weeks post-treatment, 10mg/mouse intraperitoneal three times per week

## CC(C)(O/N=C(\C(=O)N[C@@H]1C(=O)N2C(C(=O)[O-])=C(C[n+]3ccccc3)CS[C@H]12)c1csc(N)n1)C(=O)O [CFT, (6R,7R)-7-[[(2Z)-2-(2-amino-1,3-thiazol-4-yl)-2-(2-carboxypropan-2-yloxyimino)acetyl]amino]-8-oxo-3-(pyridin-1-ium-1-ylmethyl)-5-thia-1-azabicyclo[4.2.0]oct-2-ene-2-carboxylate]
DLD-1 cells [1]; 48 h post-treatment, 5-Fluorouracil 16µM
  inhibitory effect vs. control untreated cells (metabolic activity): 18%
DLD-1 cells [1]; CFT alone (100 µg/ml), 72 h post-treatment
  metabolic activity (in words): significant decrease in the metabolic activity
RAW 264.7 cells
  metabolic activity of macrophages (in words): restored to control untreated cells
DLD-1 cells [2]; [8]
  percentage of cells in G0/G1: 52.6 ± 3.3%
  percentage of cells in Pre G1: 9.3 ± 2.5^(a) %
  percentage of cells in S: 14.6 ± 3.2%
DLD-1 cells [2]; 48 h
  accumulation of dead cells in the pre-G1 phase vs. control: 1.9 fold
DLD-1 cells [2]; [9]
  percentage of cells in G0/G1: 38.2 ± 4.3^(a) %
  percentage of cells in G2/M: 12.0 ± 1.6^(a) %
  percentage of cells in Pre G1: 40.6 ± 5.2^(a) %
  percentage of cells in S: 8.4 ± 0.6%
DLD-1 cells [2]; 72h
  accumulation of dead cells in the pre-G1 phase vs. control: 9.4 fold
HCT-116 cells [3]; 48 h
  percentage of cells in G2/M: 24.4 ± 1.2%
  percentage of cells in Pre G1: 6.4 ± 2.3^(a) %
  percentage of cells in S: 12.8 ± 2.9%
HCT-116 cells [3]; 72 h
  percentage of cells in G0/G1: 56.9 ± 1.3^(a) %
  percentage of cells in G2/M: 24.3 ± 0.5^(a) %
  percentage of cells in Pre G1: 9.8% and 9.8 ± 0.9^(a) %
  percentage of cells in S: 6.6 ± 1.0%
HCT-116 cells [4]
  effect on 5-FU's effect on metabolic activity (in words): antagonized 5-FU's effect
HCT-116 cells [5]; mice exposed for three weeks, then treatment stopped
  tumor growth after stopping treatment (in words): the tumor did not grow further
HCT-116 cells [5]; [10]
  inhibition of tumor volume vs. control group: 95%
  tumor size (volume of xenografts): 45.3 mm^3
HCT-116 cells [5]; treatment started when tumor volume was around 990 mm^3, vs. control untreated mice
  inhibition of tumor volume, already established tumors: around 50%
Caco-2 cells
  inhibition of proliferation (metabolic activity): 30%
HCT-116 cells [6]; HCT-116 cells, 2 h
  Concentration of CFT, Lysate: 0.047 ± 0.003
  Concentration of CFT, Supernatant: 96.900 ± 3.818
HCT-116 cells [6]; HCT-116 cells, 4 h
  Concentration of CFT, Lysate: 0.066 ± 0.012
  Concentration of CFT, Supernatant: 105.000 ± 4.168
HCT-116 cells [6]; HCT-116 cells, 6 h
  Concentration of CFT, Lysate: 0.056 ± 0.001
  Concentration of CFT, Supernatant: 96.750 ± 8.697
HCT-116 cells [6]; HCT-116 cells, 8 h
  Concentration of CFT, Lysate: 0.053 ± 0.010
  Concentration of CFT, Supernatant: 88.900 ± 8.326
HCT-116 cells [6]; HCT-116 cells, up to 8 h, CFT 100 µg/ml
  uptake of CFT: 0.047-0.066%
HCT-116 cells [6]; up to 8h
  average uptake in HCT-116 cells compared to DLD-1 cells: 2 folds
HCT-116 cells [6]; up to 8 h, CFT 100 µg/ml
  uptake in HCT-116 cells compared to DLD-1 cells: ~2.5 fold
DLD-1 cells [7]; 2 h
  Concentration of CFT, Lysate: 0.024 ± 0.003
  Concentration of CFT, Supernatant: 100.000 ± 2.970
DLD-1 cells [7]; 4 h
  Concentration of CFT, Lysate: 0.026 ± 0.002
  Concentration of CFT, Supernatant: 97.073 ± 5.728
DLD-1 cells [7]; 6 h
  Concentration of CFT, Lysate: 0.033 ± 0.003
  Concentration of CFT, Supernatant: 91.335 ± 7.637
DLD-1 cells [7]; 8 h
  Concentration of CFT, Lysate: 0.032 ± 0.001
  Concentration of CFT, Supernatant: 98.126 ± 5.940
DLD-1 cells [7]; up to 8h
  average uptake by the cells: around 0.02%
DLD-1 cells [7]; up to 8 h, CFT 100 µg/ml
  uptake of CFT: 0.019-0.025%
